Measurements published in US20180311237A1, “COMPOSITIONS AND METHODS FOR PREVENTING AND TREATING MUCOSITIS AND WEIGHT LOSS” (ST IP Holding AG, priority 2007, published 2018).
Read-outs that look alike come from different tables or passages of the source. Marks after values point to notes of the source that are not given here.

Tests used:
spleen = details: day 10 post-irradiation
Protocol: The weight of the spleen at each autopsy interval (day 1, 3, 7, 10, 14 and 30 post-irradiation) was determined to study changes.

[1] = oral administration with cysteine (Hassan M. Ali et al., 1984); cited from earlier work
[2] = format: in vivo
Protocol: Ninety-six (96) female nude mice ([…]) were randomly assigned into 8 treatment groups. Each mouse was inoculated with 1×10^6 NCI-H146 (H146) small cell lung cancer cells in a volume of 0.05 mL on their lower left flank with Matrigel. Treatment began once tumors reached a volume of 75-125 mm^3.
Initiation of drug treatment was designated day 1. Mice in groups 1 and 5 received vehicle by oral gavage once daily on days 1 and 3. […] Mice in groups 5 to 8 received radiation. The radiation was given as 2 doses of 2 Gy/dose on days 2 and 4. This was accomplished by anesthetizing the mice in these groups with ketamine (100 mg/kg) and xylazine (5 mg/kg) and placing them under a lead shield such that the region of the flank with tumor exposed to the radiation. Radiation was delivered using a Philips 160 kV source at a focal distance of approximately 40 cm, and a dose rate of approximately 1.0 Gy/min. Tumours were measured on alternating days throughout the duration of the study. All mice were sacrificed on day 21 and remaining tumours were excised, measured, weighed, photographed and fixed in formalin for later analysis.
All animals were weighed every day and their survival recorded, in order to assess possible differences in animal weight among treatment groups as an indication of possible toxicity resulting from the treatments.

[3] = tested on: mice exposed to 10 Gy gamma radiation; details: for day of first death post-irradiation: 1 h before 10 Gy; for increase in survival compared with the CMC and irradiation group / reduction in animal survival compared with the 100 mg/kg group: thirty-day survival
Protocol: Animals of this group received 0.5% carboxymethyl cellulose (CMC) orally before exposure to 10 Gy gamma irradiation.
A batch of ten animals was irradiated each time at a dose rate of 1.33 Gy/min.
After irradiation, the animals were monitored daily for 30 days for the development of symptoms of radiation sickness and mortality.
Animals of this group received 0.5% carboxymethyl cellulose (CMC) orally before exposure to 10 Gy of gamma irradiation.
Animals of this group were treated with 1, 5, 10, 25, 50, 100, 150, 200 or 250 mg/kg body weight of DAPR orally once before exposure to 10 Gy of gamma radiation.
One hour after the administration of CMC or DAPR, the immobilized animals, achieved by inserting cotton plugs in the restrainer, were whole-body exposed to ^60Co gamma radiation (Theratron, Atomic Energy Agency, Canada) in a specially designed well-ventilated acrylic box. A batch of ten animals was irradiated each time at a dose rate of 1.33 Gy/min.
Initially 1, 5 and 10 mg/kg DAPR were also evaluated. […] The radioprotective efficacy of DAPR was evaluated by treating mice with 0, 25, 50, 100, 150, 200 and 250 mg/kg body weight DAPR before whole-body exposure to 10 Gy gamma radiation.

bone marrow cells = tested on: bone marrow cells
Protocol: Cytogenetic damage in the bone marrow cells was studied by chromosomal aberration analysis at the end of the experiments. All animals were injected intra-peritoneally (i.p.) with 0.025% colchicine and sacrificed 2 hours later by cervical dislocation. Both femurs were dissected out. Metaphase plates were prepared by the air drying method. Bone marrow from the femur was aspirated, washed in saline, treated hypotonically (0.6% sodium citrate), fixed in 3:1 methanol:acetic acid, dried and stained with 4% Giemsa (Sigma, USA). Chromosomal aberrations were scored under a light microscope. A total of 400 metaphase plates were scored per animal. Different types of aberration-like chromatid breaks, chromosome breaks, fragments, rings, exchanges and dicentrics were scored. When breaks involved both chromatids, it was termed a “chromosome type” aberration, while “chromatid type” aberrations involved only one chromatid. If the deleted portion had no apparent relation to a specific chromosome, it was called a fragment.

[4] = tested on: reduced glutathione (GSH)
Protocol: Thirty minutes after the last administration, the animals were exposed to 8 Gy gamma radiation. Survival of the animals was recorded for 30 days after irradiation. The reduced glutathione (GSH) and lipid peroxidation (LPO) levels in liver and blood were estimated after 30 minutes of radiation exposure.
The hepatic level of reduced glutathione (GSH) was determined as per the standard method. GSH content in blood was measured
Spectrophotometrically using Ellman's reagent (DTNB) as a colouring reagent. The absorbance was read at 412 nm using a UV-VIS Systronics Spectrophotometer.

[5] = 50, 100, 200 or 400 kg/body weight/day orally for 2 consecutive days, observed 30 days
Source text: Male Swiss albino mice (Mus musculus), 6-8 weeks old with 25±3 g body weight from an inbred colony (obtained from Hamadard University, Delhi, India) were used for the present study. Animals were maintained under controlled conditions of temperature and light in an animal house and were provided with standard mice feed (procured from Hindustan Lever's Ltd. Delhi, India) and water ad libitum.

## Cc1c(-c2cnccn2)ssc1=S
spleen; drug + 6 Gy
  Spleen Weight: 42.44 ± 1.24^b mg
spleen; drug + 8 Gy
  Spleen Weight: 32.62 ± 1.02^b mg
spleen; drug + 10 Gy
  Spleen Weight: 34.38 ± 1.20^c mg
[1]
  extent and rate of bioavailability: marked increase
[2]; 50 mg/kg po on days 1 and 3, no radiation
  average loss of starting weight by Day 21: 0.1%
[2]; 50 mg/kg po on days 1 to 20, no radiation
  average gain of starting weight by Day 21: 0.8%
[2]; 100 mg/kg po on days 1 and 3, no radiation
  average gain of starting weight by Day 21: 4.8%
[2]; 50 or 100 mg/kg po, with or without radiation, 21 days
  toxicity based on observations of survival and weight change: no evidence of toxicity
[2]; radiation (2 Gy days 2 and 4) plus 50 mg/kg on days 1 and 3
  average gain of starting weight by Day 21: 0.8%
[2]; radiation plus 50 mg/kg on days 1 to 20
  average gain of starting weight by Day 21: 1.4%
[2]; radiation plus 100 mg/kg on days 1 and 3
  average gain of starting weight by Day 21: 5.1%
[3]; 5 mg/kg orally once
  day of first death post-irradiation: 7 days
[3]; 10 mg/kg, 10 Gy
  increase in survival compared with the CMC and irradiation group: 20%
[3]; 25 mg/kg, 10 Gy
  increase in survival compared with the CMC and irradiation group: 30%
[3]; 50 mg/kg, 10 Gy
  increase in survival compared with the CMC and irradiation group: 40%
[3]; 100 mg/kg orally before 10 Gy
  thirty-day survival: 60%
[3]; 100 mg/kg orally once
  day of first death post-irradiation: 11 days
[3]; 100 mg/kg, 10 Gy
  increase in survival compared with the non-treated irradiated control: 60%
[3]; 150 mg, 10 Gy
  reduction in animal survival compared with the 100 mg/kg group: 20%
[3]; 150 mg/kg orally before 10 Gy
  mortality within 10 days of irradiation: did not cause any mortality
[3]; 200 mg, 10 Gy
  reduction in animal survival compared with the 100 mg/kg group: 20%
[3]; 200 mg/kg orally before 10 Gy
  mortality within 10 days of irradiation: did not cause any mortality
[3]; 250 mg/kg, 10 Gy
  reduction in animal survival compared with the 100 mg/kg group: 30%
[3]; oral, before 10 Gy
  optimum protective dose: 100 mg/kg
Bone marrow cells; drug (100 mg/kg body weight/day) + 8 Gy
  Chromatid breaks: 3.18 ± 0.44^a %
Bone marrow cells; drug + 8 Gy
  Aberrant cells: 17.20 ± 1.20^c %
  Aberrations per damaged cell: 2.21 ± 0.20^a
  Centric rings: 1.26 ± 0.28%
  Chromosome breaks: 1.04 ± 0.26^b %
  Dicentrics: 1.10 ± 0.14%
  Exchanges: 1.18 ± 0.32^b %
  Fragments: 28.8 ± 3.20^c %
  Polyploidy: 0.36 ± 0.01^c %
  Pulverized cells: 1.28 ± 0.02^c %
  Total aberrations: 38.10 ± 3.66^c %
Bone marrow cells; drug alone
  Aberrant cells: 0.61 ± 0.04%
  Aberrations per damaged cell: 1.21 ± 0.03^c
  Centric rings: 0.00 ± 0.00%
  Chromatid breaks: 0.14 ± 0.01%
  Chromosome breaks: 0.00 ± 0.00%
  Dicentrics: 0.00 ± 0.00%
  Exchanges: 0.00 ± 0.00%
  Fragments: 0.85 ± 0.04^b %
  Polyploidy: 0.18 ± 0.02%
  Pulverized cells: 0.00 ± 0.00%
  Total aberrations: 0.74 ± 0.02%
[4]; drug + 6 Gy
  Blood GSH: 3.02 ± 0.12^c μg/ml
  Liver GSH: 52.44 ± 1.54^b μmole/gm
[4]; drug + 8 Gy
  Blood GSH: 2.88 ± 0.11^b μg/ml
  Liver GSH: 54.62 ± 1.72^c μmole/gm
[4]; drug + 10 Gy
  Blood GSH: 2.40 ± 0.12 µg/mL
  Liver GSH: 44.38 ± 1.42^c μmole/gm
[4]; drug alone, no irradiation
  Blood GSH: 4.18 ± 0.18 µg/mL
  Liver GSH: 65.68 ± 1.48 μmole/gm
[5]
  toxic effect (mortality or any other sign): did not produce any toxic effect
